Data as given in patent US10342796B2, “Acrylanilide derivative, preparation method, and applications thereof in pharmacy” (Ancureall Pharmaceutical (Shanghai) Co., Ltd., priority 2015, dated 2019).
Like-named read-outs stand apart in the source and are kept apart here.

What was measured:
Test in all cases: Growth inhibition GI50 in vitro (CCK8/MTT, 72 h)
[1] = test system: H292 (EGFR WT); type: cell-based; details: Homo sapiens, NCI-H292
[2] = test system: A431 (EGFR WT, amplification and high expression); type: cell-based, human; details: Homo sapiens, A-431
[3] = test system: A549 (EGFR WT); type: cell-based, human; details: Homo sapiens
[4] = test system: H460 (EGFR wt, Kras G61H); type: cell-based, human; details: Homo sapiens, NCI-H460
[5] = test system: H1299 (EGFR wt, Nras Q61K); type: cell-based, human; details: Homo sapiens, NCI-H1299
[6] = test system: HCC827 (EGFR dE746-A750); type: cell-based, human; details: Homo sapiens
[7] = test system: H1975 (EGFR L858R/T790M); type: cell-based, human; details: Homo sapiens, NCI-H1975
[8] = test system: PC-9 (EGFR dE746-A750); type: cell-based, human; details: Homo sapiens
[9] = test system: AU565 (Her2 amp); type: cell-based, human; details: Homo sapiens
[10] = test system: SK-BR-3 (Her2 amp); type: cell-based, human; details: Homo sapiens
[11] = test system: N87 (HER2 Amp); type: cell-based, human; details: Homo sapiens
[12] = test system: Calu-3 (Her2 amp); type: cell-based; details: Homo sapiens
Method: Human lung adenocarcinoma cell line Calu-3 (ATCC) was cultured with 1×MEM complete medium (10% FBS, 1% double-antibiotics, 1% NEAA (Gibco), 2 mM glutamine and 1 mM of sodium pyruvate). Human breast cancer cell line SK-BR-3 was cultured with McCOY'S5A complete medium (10% FBS). Human colon cancer cell line SNU1040 (HER2 V777M positive) (ATCC) and human bronchoalveolar adenocarcinoma cell line NCI-H1781 (expressing HER2 exon 20 G776VC mutation) (ATCC) were cultured with 1×RPMI1640 complete medium (10% FBS), respectively.
The suspension cells were collected by centrifugation. The supernatant was discard and the cell pellet was resuspended and counted. Different cell concentrations (5˜10×10^4 cells/mL) were prepared according to the growth cycle of each cell line and then seeded on a 96-well plate (Corning), 100 μL/well. The cells were incubated over night at 37° C., 5% CO2. The compounds were added to the cells on the second day with 2 wells in parallel. The final concentration of organic solvent shall not exceed 1%. The cells were continually incubated for 72 h, and then subjected to MTT assay.
The present compounds and the reference compounds were dissolved with DMSO (Sigma), respectively. […] The storage concentration of compounds was 10 mM and kept at −20° C. They were diluted by 2 times or 10 times with serial dilution before using.
Dojindo CCK8 reagent kit was used as MTT assay. […] FC meter was used as microplate reader.
Adherent cell culture medium was discard and immediately replaced with fresh prepared medium which contains 10% CCK8 reagent (100 μL/well). For the suspension cells, CCK8 was directly added to 10% of the final concentration. The cells were continually incubated for 1˜4 h. When the color of control wells turned to dark yellow, the absorption value was measured at OD450 nm. The cell growth rate was calculated according to the following formula: cell growth rate (%)=100*(T−T0)/(C−T0), T=optical density of drug treatment cell well—optical density of blank control well; T0=optical density of cell well before drug treatment—optical density of blank control well; C=optical density of cell well of solvent control group—optical density of blank control well. […] The experiment was independently repeated 1˜3 times, and subject to biological statistical analysis.

[13] = test system: PC-9ER (EGFR delE746-A750/T790M); type: cell-based, human; details: Homo sapiens, PC-9/ER; EGFR mutant cell line; range of GI50; read-out: GI50 PC9ER
[14] = A549, EGFR wt, Kras G12S, read-out: GI50
[15] = H460, EGFR wt, Kras G61H, read-out: GI50
[16] = H1299, EGFR wt, Nras Q61K, read-out: GI50
[17] = HCC827, EGFR dE746-A750, read-out: GI50
[18] = H1975, EGFR L858R/T790M, read-out: GI50
[19] = PC-9, EGFR dE746-A750, read-out: GI50
[20] = AU565, EGFR wt, Her2 amp, read-out: GI50
[21] = N87, EGFR wt, Her2 amp, read-out: GI50
[22] = EGFR wild type cell line, range of GI50, read-out: GI50 A431
[23] = A549, EGFR wild type cell line, range of GI50, read-out: GI50 A549
[24] = EGFR wild type cell line, range of GI50, read-out: GI50 H460
[25] = EGFR wild type cell line, range of GI50, read-out: GI50 H1299
[26] = HCC827, EGFR mutant cell line, range of GI50, read-out: GI50 HCC827
[27] = EGFR mutant cell line, range of GI50, read-out: GI50 H1975
[28] = EGFR mutant cell line, range of GI50, read-out: GI50 PC-9
[29] = AU565, HER2 positive cell line, range of GI50, read-out: GI50 AU-565
[30] = SK-BR-3, HER2 positive cell line, range of GI50, read-out: GI50 SK-BR-3
[31] = HER2 positive cell line, range of GI50, read-out: GI50 N87

GI50 [2, 22] [nM] | GI50 [3, 23] [nM] | GI50 [4, 24] [nM] | GI50 [5, 25] [nM] | GI50 [6, 26] [nM] | GI50 [7, 27] [nM] | GI50 [13] [nM] | GI50 [8, 28] [nM] | GI50 [10, 30] [nM] | SMILES | GI50 ([1]; H292, EGFR wt, read-out: GI50) [nM] | GI50 ([2]; A431, EGFR wt, read-out: GI50) [nM] | GI50 [3, 14] [nM] | GI50 [4, 15] [nM] | GI50 [5, 16] [nM] | GI50 [6, 17] [nM] | GI50 [7, 18] [nM] | GI50 [8, 19] [nM] | GI50 [9, 20] [nM] | GI50 [9, 29] [nM] | GI50 [11, 31] [nM] | other results
– | – | – | – | – | – | – | – | – | C=CC(=O)Nc1cc(Nc2nccc(-c3cn(C)c4ccccc34)n2)c(OC)cc1N(C)CCN(C)C [AZD9291, reference compound] | > 1000 | […] | > 1000 | > 1000 | > 1000 | 15.6 | 15.6 | 13.9 | 312 | – | – | GI50 ([1]; Table 15, 1000 nM to 0.03 nM serial dilution, read-out: GI50 H292 (EGFR WT)): > 1000 nM; GI50 ([3]; A549, Table 15, 1000 nM to 0.03 nM serial dilution, read-out: GI50 A549 (EGFR WT)): > 1000 nM; GI50 ([7]; Table 15, 1000 nM to 0.03 nM serial dilution, read-out: GI50 H1975 (EGFR L858R/T790M)): 15.6 nM; GI50 ([8]; Table 15, 1000 nM to 0.03 nM serial dilution, read-out: GI50 PC-9 (EGFR dE746-A750)): 13.9 nM; GI50 ([10]; SK-BR-3): 643 nM; GI50 [11, 21]: 234 nM; GI50 ([11]; Table 16, 1000 nM to 0.03 nM serial dilution, read-out: GI50 N87 (HER2 amp)): 219 nM; GI50 ([12]; Calu-3, Table 16, 1000 nM to 0.03 nM serial dilution, read-out: GI50 Calu3 (HER2 amp)): 657 nM; GI50 ([12]; Calu-3, EGFR wt, Her2 amp, read-out: GI50): 686 nM
100 to 1000 | > 1000 | > 1000 | > 1000 | < 10 | 10 to 100 | 10 to 100 | < 10 | 100 to 1000 | C=CC(=O)Nc1cc(Nc2nccc(-n3ccc4ccc(F)cc43)n2)c(OC)cc1N(C)CCN(C)C [Compound 63, N-(5-(4-(6-fluoro-1H-indol-1-yl)-pyrimidin-2-ylamino)-2-((2-(dimethylamino)ethyl)-methyl-amino)-4-methoxyl-phenyl)-acrylamide] | – | – | – | – | – | – | – | – | – | 100 to 1000 | 10 to 100 | –
100 to 1000 | > 1000 | > 1000 | > 1000 | 10 to 100 | 10 to 100 | 10 to 100 | 10 to 100 | 10 to 100 | C=CC(=O)Nc1cc(Nc2nccc(-n3cnc4ccccc43)n2)c(OC)cc1N(C)CCN(C)C [Compound 106] | > 1000 | 498 | > 1000 | > 1000 | > 1000 | 12.6 | 15.2 | 15.6 | 19.5 | 10 to 100 | 10 to 100 | GI50 ([10]; SK-BR-3, EGFR wt, Her2 amp, read-out: GI50): 101 nM; GI50 [11, 21]: 23.6 nM
100 to 1000 | > 1000 | > 1000 | > 1000 | < 10 | 10 to 100 | < 10 | < 10 | < 10 | C=CC(=O)Nc1cc(Nc2ncnc(Nc3cccc(Br)c3)n2)c(OC)cc1N(C)CCN(C)C [Compound 115, N-(5-(4-(3-bromo-phenylamino)-[1,3,5]triazin-2-ylamino)-2-((2-dimethylamino-ethyl)-methyl-amino)-4-methoxyl-phenyl)-acrylamide] | – | – | – | – | – | – | – | – | – | 10 to 100 | < 10 | –
